# Target: Nav1.2 (Rattus norvegicus, UniProt P04775)
# Details: not given
# Nav1.2, sequence (P04775 whole entry, looked up): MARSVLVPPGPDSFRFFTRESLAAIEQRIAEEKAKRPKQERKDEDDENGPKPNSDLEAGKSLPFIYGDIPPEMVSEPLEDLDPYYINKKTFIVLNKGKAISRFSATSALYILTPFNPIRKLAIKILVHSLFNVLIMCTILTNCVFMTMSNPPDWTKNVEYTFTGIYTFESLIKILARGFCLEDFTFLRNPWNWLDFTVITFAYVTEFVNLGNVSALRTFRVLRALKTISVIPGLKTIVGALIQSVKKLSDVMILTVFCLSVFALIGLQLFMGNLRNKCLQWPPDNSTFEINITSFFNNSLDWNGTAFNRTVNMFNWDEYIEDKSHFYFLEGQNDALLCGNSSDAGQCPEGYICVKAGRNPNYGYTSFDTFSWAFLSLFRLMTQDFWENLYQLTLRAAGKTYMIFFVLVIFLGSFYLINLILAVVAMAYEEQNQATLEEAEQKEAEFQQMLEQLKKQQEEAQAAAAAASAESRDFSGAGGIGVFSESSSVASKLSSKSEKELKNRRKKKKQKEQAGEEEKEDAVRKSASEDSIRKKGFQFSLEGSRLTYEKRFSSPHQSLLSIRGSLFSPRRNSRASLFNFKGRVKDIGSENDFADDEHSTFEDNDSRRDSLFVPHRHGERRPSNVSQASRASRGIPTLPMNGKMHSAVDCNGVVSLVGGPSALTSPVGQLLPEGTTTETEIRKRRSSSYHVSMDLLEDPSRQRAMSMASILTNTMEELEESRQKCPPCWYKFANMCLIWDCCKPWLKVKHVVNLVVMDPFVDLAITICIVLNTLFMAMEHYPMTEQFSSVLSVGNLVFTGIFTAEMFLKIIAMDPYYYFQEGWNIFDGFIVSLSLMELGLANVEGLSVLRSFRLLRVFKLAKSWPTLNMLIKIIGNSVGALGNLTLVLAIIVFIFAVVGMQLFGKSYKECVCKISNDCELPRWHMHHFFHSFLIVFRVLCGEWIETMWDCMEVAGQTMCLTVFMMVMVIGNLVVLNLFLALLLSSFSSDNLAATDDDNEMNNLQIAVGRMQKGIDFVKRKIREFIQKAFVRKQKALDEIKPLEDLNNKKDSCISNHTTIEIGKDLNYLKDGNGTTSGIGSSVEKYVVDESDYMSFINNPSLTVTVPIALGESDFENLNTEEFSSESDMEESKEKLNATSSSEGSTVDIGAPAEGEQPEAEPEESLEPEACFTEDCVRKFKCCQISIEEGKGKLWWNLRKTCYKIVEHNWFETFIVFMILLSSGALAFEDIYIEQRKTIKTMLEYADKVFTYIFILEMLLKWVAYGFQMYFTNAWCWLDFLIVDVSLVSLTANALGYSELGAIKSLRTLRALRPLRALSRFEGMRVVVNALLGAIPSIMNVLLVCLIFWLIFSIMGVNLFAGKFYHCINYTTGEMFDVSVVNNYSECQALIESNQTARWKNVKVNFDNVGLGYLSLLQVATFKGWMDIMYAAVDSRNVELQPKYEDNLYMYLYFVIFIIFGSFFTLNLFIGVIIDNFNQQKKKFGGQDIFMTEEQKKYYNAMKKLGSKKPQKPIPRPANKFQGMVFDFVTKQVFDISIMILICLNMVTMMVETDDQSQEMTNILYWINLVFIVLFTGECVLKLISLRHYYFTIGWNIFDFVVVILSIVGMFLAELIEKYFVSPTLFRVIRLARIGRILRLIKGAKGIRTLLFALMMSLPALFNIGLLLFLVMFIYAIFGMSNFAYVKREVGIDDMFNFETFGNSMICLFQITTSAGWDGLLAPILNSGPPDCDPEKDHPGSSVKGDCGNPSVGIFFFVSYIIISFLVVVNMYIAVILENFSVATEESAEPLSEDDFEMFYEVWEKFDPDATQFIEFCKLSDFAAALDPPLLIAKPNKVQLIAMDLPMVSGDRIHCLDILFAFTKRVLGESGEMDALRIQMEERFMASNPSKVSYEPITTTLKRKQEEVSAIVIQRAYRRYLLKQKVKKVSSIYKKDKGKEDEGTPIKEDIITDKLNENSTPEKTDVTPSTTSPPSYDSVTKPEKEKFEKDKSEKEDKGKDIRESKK
row,Compound,block of [14C] Guanidine influx by TTX
1,"NC1=N[C@H](O)[C@H]2[C@H]3O[C@]4(O)O[C@@H]([C@@H](O)[C@@]2(N1)[C@@H]4O)[C@]3(O)CO [TTX, tetrodotoxin]",Guanidine influx was completely

# Target: NaV1.8 (Homo sapiens, UniProt Q9Y5Y9)
# Type: cell-based
# Details: not given
# NaV1.8, sequence (Q9Y5Y9 whole entry, looked up): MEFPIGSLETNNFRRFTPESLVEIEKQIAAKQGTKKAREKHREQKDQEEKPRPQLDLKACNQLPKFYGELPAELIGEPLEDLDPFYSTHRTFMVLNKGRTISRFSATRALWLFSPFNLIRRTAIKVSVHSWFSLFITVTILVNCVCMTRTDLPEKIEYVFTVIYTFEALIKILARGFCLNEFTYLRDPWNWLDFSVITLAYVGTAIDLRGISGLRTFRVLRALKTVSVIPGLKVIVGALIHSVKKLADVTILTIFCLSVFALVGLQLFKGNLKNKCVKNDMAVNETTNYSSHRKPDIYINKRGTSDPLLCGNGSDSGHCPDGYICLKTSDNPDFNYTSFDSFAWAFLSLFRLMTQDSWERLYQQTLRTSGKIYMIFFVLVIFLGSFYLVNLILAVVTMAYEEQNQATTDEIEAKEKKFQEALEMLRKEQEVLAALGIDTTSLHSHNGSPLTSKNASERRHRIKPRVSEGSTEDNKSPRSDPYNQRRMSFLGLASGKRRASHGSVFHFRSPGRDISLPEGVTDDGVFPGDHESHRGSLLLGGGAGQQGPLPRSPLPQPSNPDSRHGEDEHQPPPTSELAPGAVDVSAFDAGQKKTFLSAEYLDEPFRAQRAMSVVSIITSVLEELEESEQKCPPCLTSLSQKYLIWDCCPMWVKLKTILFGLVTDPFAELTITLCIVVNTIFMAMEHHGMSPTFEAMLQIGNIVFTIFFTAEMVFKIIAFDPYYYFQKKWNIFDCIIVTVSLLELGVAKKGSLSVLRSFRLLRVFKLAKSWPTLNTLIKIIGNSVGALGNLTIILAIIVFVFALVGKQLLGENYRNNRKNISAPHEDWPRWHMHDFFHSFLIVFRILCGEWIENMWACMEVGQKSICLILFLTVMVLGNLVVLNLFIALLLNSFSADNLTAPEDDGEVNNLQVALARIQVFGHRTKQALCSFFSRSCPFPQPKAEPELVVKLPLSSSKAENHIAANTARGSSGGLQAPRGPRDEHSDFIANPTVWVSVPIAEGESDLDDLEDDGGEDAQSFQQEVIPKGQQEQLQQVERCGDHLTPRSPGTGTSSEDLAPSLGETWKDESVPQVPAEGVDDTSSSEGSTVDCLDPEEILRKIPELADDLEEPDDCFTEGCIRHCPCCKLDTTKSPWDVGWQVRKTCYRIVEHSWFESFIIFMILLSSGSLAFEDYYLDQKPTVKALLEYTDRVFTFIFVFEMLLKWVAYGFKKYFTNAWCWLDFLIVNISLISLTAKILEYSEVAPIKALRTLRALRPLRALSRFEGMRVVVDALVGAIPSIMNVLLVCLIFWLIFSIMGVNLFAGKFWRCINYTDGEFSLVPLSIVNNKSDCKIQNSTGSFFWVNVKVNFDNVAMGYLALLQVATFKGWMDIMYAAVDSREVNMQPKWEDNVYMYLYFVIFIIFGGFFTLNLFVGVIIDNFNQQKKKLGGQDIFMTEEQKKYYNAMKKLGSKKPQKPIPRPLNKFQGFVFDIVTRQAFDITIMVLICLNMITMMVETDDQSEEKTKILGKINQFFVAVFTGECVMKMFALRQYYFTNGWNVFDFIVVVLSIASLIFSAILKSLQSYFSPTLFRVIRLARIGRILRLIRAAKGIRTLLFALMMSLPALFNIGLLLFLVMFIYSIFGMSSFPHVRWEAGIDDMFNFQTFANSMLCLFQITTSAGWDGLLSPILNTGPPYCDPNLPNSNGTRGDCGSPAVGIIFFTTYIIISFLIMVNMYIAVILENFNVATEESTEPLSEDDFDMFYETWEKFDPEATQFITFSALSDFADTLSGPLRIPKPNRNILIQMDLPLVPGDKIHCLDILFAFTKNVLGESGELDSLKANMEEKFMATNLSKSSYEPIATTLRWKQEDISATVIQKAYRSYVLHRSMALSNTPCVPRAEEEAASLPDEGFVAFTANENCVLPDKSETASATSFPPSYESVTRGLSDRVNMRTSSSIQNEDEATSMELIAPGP
row,Compound,block of [14C] Guanidine influx by TTX
1,"NC1=N[C@H](O)[C@H]2[C@H]3O[C@]4(O)O[C@@H]([C@@H](O)[C@@]2(N1)[C@@H]4O)[C@]3(O)CO [TTX, tetrodotoxin]",TTX partially blocked influx

# Test system: Nav1.4 and 1.5
# Type: cell-based, rat
# Details: not given
row,Compound,block of [14C] Guanidine influx by TTX
1,"NC1=N[C@H](O)[C@H]2[C@H]3O[C@]4(O)O[C@@H]([C@@H](O)[C@@]2(N1)[C@@H]4O)[C@]3(O)CO [TTX, tetrodotoxin]",partially blocked by TTX (Nav1.5

# Test system: peripheral nerve injury
# Details: intravenous; concentrations that do not affect general behaviour and motor function; cited from earlier work
Compound,effect on ectopic activity in the injured nerve,effect on tactile allodynia
CCN(CC)CC(=O)Nc1c(C)cccc1C [lidocaine],suppress the ectopic activity,reverse the tactile allodynia

# Test system: Nav1.4
# Type: cell-based, Chinese Hamster
# Details: not given
row,Compound,block of [14C] Guanidine influx by TTX
1,"NC1=N[C@H](O)[C@H]2[C@H]3O[C@]4(O)O[C@@H]([C@@H](O)[C@@]2(N1)[C@@H]4O)[C@]3(O)CO [TTX, tetrodotoxin]",Guanidine influx was completely

# Test system: not given
# Details: not given
row,Compound,melting point
1,O=C1N(Cc2cccc3ccccc23)c2ccccc2C1(O)c1ccc2c(c1)OCO2 (centres unmarked),93 to 95 °C
2,O=C1N(CCC2CC2)c2ccccc2C1(O)c1ccc2c(c1)OCO2 (centres unmarked),110 to 112 °C
3,CCCCCN1C(=O)C(c2ccc3c(c2)OCO3)c2c(Cl)ccc(Cl)c21 (centres unmarked),84 to 86 °C
4,O=C1N(Cc2ccc(C(F)(F)F)o2)c2ccc(F)cc2C1(CO)c1cc2c(cc1O)OCO2 (centres unmarked),92 to 95 °C
5,O=C1N(Cc2ccc(Cl)c(C(F)(F)F)c2)c2ccccc2C1(O)c1ccc2c(c1)OCO2 (centres unmarked),133 to 135 °C
6,O=C1N(Cc2ccc(Cl)cc2)c2ccc(F)cc2C1(O)c1ccc2c(c1)OCO2 (centres unmarked),145 to 147 °C
7,O=C(CC1(O)C(=O)N(CCc2ccc(Cl)cc2)c2ccccc21)c1ccco1 (centres unmarked),128 to 132 °C
8,O=C1N(Cc2cccs2)c2ccccc2C1(O)c1ccc2c(c1)OCO2 (centres unmarked),141 to 142 °C
9,O=C1N(Cc2ccccn2)c2cccc(Br)c2C1(O)c1cc2c(cc1O)OCC2 (centres unmarked),> 225 °C
10,O=C(c1ccc(Cl)cc1)N1C(=O)C(O)(c2ccccc2)c2ccccc21 (centres unmarked),141 to 143 °C
11,O=C1N(Cc2ccc3c(c2)OCO3)c2ccccc2C1(O)c1ccc2ccoc2c1 (centres unmarked),> 200 °C
12,O=C1N(Cc2cccc3cccnc23)c2ccccc2C1(O)c1ccc2c(c1)OCO2 (centres unmarked),187 to 189 °C
13,O=C1Nc2c(-c3ccc4c(c3)OCO4)cccc2C1(O)c1ccc2c(c1)OCO2 (centres unmarked),112 to 115 °C
14,O=C1N(Cc2ccc(Cl)s2)c2ccccc2C1(O)c1ccc2c(c1)OCO2 (centres unmarked),164 to 165 °C
15,Cc1ccc2c(c1)C(O)(CC(=O)c1ccco1)C(=O)N2Cc1ccc(Cl)cc1 (centres unmarked),183 to 185 °C
16,O=C1N(Cc2ccc(Cl)cc2)c2ccc(OC(F)(F)F)cc2C1(O)c1ccc2c(c1)OCO2 (centres unmarked),138 to 140 °C
17,O=C(CC1(O)C(=O)N(c2ccc(F)cc2)c2ccccc21)c1ccco1 (centres unmarked),185 °C (dec.)
18,O=C1N(Cc2ccc(Cl)cc2)c2ccccc2C1(O)c1ccc2c(c1)OCCCO2 (centres unmarked),188 to 190 °C
19,CC(c1ccccc1)N1C(=O)C(O)(c2ccc3c(c2)OCO3)c2ccccc21 (centres unmarked),148 to 150 °C
20,O=C(CC1(O)C(=O)N(Cc2ccc(Cl)cc2)c2ccccc21)c1ccc[nH]1 (centres unmarked),202 °C (dec.)
21,O=C1N(CCCCCCl)c2ccccc2C1(O)c1ccc2c(c1)OCO2 (centres unmarked),131 to 132 °C
22,O=C1N(Cc2cc3c(cc2Cl)OCO3)c2ccccc2C1(O)c1ccc2c(c1)OCO2 (centres unmarked),153 to 155 °C
23,O=C(CC1(O)C(=O)N(Cc2ccc(Cl)cc2)c2ccccc21)c1ccc(F)cc1 (centres unmarked),156 to 160 °C

row,Compound,melting point
1,CCCCCN1C(=O)C(CO)(c2cc3c(cc2O)OCO3)c2ccccc21 (centres unmarked),125 to 127 °C
2,O=C1c2ccccc2CC1C1(O)C(=O)N(Cc2ccc(Cl)cc2)c2ccccc21 (centres unmarked),154 to 157 °C
3,COc1ccc(C2(O)C(=O)N(Cc3ccc(Cl)cc3)c3ccccc32)cc1OC (centres unmarked),155 to 158 °C
4,CCCCCN1C(=O)C(O)(c2ccc3c(c2)OCO3)c2ccc(Cl)cc21 (centres unmarked),103 to 105 °C
5,O=C1N(Cc2ccc(Cl)cc2)c2ccccc2C1(O)c1ccc2c(c1)OC(F)(F)O2 (centres unmarked),150 to 152 °C
6,O=C1N(Cc2ccc(Cl)cc2)c2ccccc2C1(O)c1cc(OCc2ccccc2)ccc1O (centres unmarked),172 to 175 °C
7,CCCCCN1C(=O)C(O)(c2ccc3ocnc3c2)c2ccccc21 (centres unmarked),189 to 191 °C
8,O=C1C(c2ccc3c(c2)OCO3)c2ccccc2N1CCC1CC1 (centres unmarked),87 to 89 °C
9,COc1ccccc1CN1C(=O)C(O)(c2ccc3c(c2)OCO3)c2ccccc21 (centres unmarked),148 to 150 °C
10,O=C1C(c2ccc3c(c2)OCO3)c2ccccc2N1Cc1ccc(Cl)cc1 (centres unmarked),161 to 163 °C
11,CCCCCN1C(=O)C(O)(c2ccc3c(c2)OCO3)c2c(Cl)cccc21 (centres unmarked),140 to 142 °C
12,O=C1N(Cc2ccc(Cl)cc2)c2ccccc2C1(O)c1ccc2ncsc2c1 (centres unmarked),185 to 187 °C
13,O=C1N(Cc2ccc(Cl)cc2)c2ccccc2C1(O)CC1OCCO1 (centres unmarked),166 to 169 °C
14,CCCCCN1C(=O)C(N)(CC(=O)c2cccs2)c2ccccc21 (centres unmarked),167 to 169 °C
15,O=C1N(Cc2ccccc2I)c2ccccc2C1(O)c1ccc2c(c1)OCO2 (centres unmarked),130 to 132 °C
16,O=C1N(CCCC(F)(F)F)c2ccccc2C1(O)c1ccc2c(c1)OCO2 (centres unmarked),119 to 121 °C
17,O=C1N(Cc2cccc(C(F)(F)F)c2)c2ccccc2C1(O)c1ccc2c(c1)OCO2 (centres unmarked),133 to 135 °C
18,O=C(CC1(O)C(=O)N(Cc2ccc(Cl)cc2)c2ccccc21)c1cc2ccccc2o1 (centres unmarked),185 °C (dec.)
19,COc1ccc(CN2C(=O)C(O)(c3ccc4c(c3)OC(F)(F)O4)c3ccccc32)cc1 (centres unmarked),88 to 90 °C
20,COc1ccc(C2(O)C(=O)N(Cc3ccc(Cl)cc3)c3ccccc32)cn1 (centres unmarked),182 to 184 °C
21,CCCCCN1C(=O)C(c2cc3c(cc2O)OCO3)c2ccccc21 (centres unmarked),101 to 103 °C
22,O=C(CC1(O)C(=O)N(Cc2ccc3c(c2)OCO3)c2ccccc21)c1cccs1 (centres unmarked),186 to 187 °C
23,CCCCCCN1C(=O)C(O)(c2ccc3c(c2)OCO3)c2ccccc21 (centres unmarked),88 to 90 °C

row,Compound,melting point
1,COc1ccc2c(c1)C(O)(c1ccc3c(c1)OCO3)C(=O)N2Cc1ccc(F)cc1 (centres unmarked),127 to 129 °C
2,CCCCCN1C(=O)C(O)(c2ccc3c(c2)OCO3)c2cccc(F)c21 (centres unmarked),102 to 104 °C
3,O=C1N(CC2CC2)c2ccccc2C1(O)c1ccc2c(c1)OCO2 (centres unmarked),142 to 145 °C
4,CCCCCN1C(=O)C(O)(c2ccc3c(c2)OCO3)c2cc(C)cc(C)c21 (centres unmarked),120 to 121 °C
5,CCCCCN1C(=O)C(c2ccc3c(c2)OCO3)c2cccc(F)c21 (centres unmarked),95 to 97 °C
6,O=C(CC1(O)C(=O)N(Cc2ccc(Cl)cc2)c2ccccc21)c1ccccn1 (centres unmarked),185 °C (dec.)
7,O=C1N(Cc2ccc(Cl)cc2)c2ccccc2C1(O)c1cncnc1 (centres unmarked),155 to 157 °C
8,O=C(CC1(O)C(=O)N(Cc2ccc3c(c2)OCO3)c2ccccc21)c1ccco1 (centres unmarked),175 to 177 °C
9,CCCCCN1C(=O)C(NC(=O)OC(C)(C)C)c2ccccc21 (centres unmarked),145 to 147 °C
10,CCCCCN1C(=O)C(O)(c2ccc3c(c2)OCO3)c2c(Cl)ccc(Cl)c21 (centres unmarked),82 to 84 °C
11,CCCCCN1C(=O)C(O)(c2ccc3c(c2)OCO3)c2cccc(C(F)(F)F)c21 (centres unmarked),115 to 117 °C
12,CCCCCN1C(=O)C(c2ccc3c(c2)OCO3)(c2cc3c(cc2O)OCO3)c2ccccc21 (centres unmarked),75 to 76 °C
13,O=C1N(Cc2ccc(-n3cccc3)cc2)c2ccccc2C1(O)c1ccc2c(c1)OCO2 (centres unmarked),195 to 198 °C
14,O=C1N(Cc2ccc(Cl)cc2)c2ccccc2C1(O)C#Cc1ccc(F)cc1 (centres unmarked),153 to 154 °C
15,CCCCCC1(O)C(=O)N(c2ccc3c(c2)OCO3)c2ccccc21 (centres unmarked),88 to 90 °C
16,CCCCCN1C(=O)C(c2ccc3c(c2)OCO3)c2cc(C)cc(C)c21 (centres unmarked),111 to 114 °C
17,CCCCC(C)N1C(=O)C(O)(c2ccc3c(c2)OCO3)c2ccccc21 (centres unmarked),152 to 154 °C
18,O=C1N(Cc2ccc(Cl)cc2)c2ccc(Br)cc2C1(O)c1ccc2c(c1)OCO2 (centres unmarked),179 to 180 °C
19,CCCCCN1C(=O)C(O)(c2cc3c(cc2CO)OCO3)c2ccccc21 (centres unmarked),120 to 122 °C
20,CCCCCN1C(=O)C(O)(c2ccc3c(c2)OCO3)c2cccc(-c3ccc(F)cc3)c21 (centres unmarked),149 to 151 °C
21,O=C1N(Cc2ccc(Cl)cc2)c2ccccc2C1(O)c1ccc2ccoc2c1 (centres unmarked),> 200 °C (dec.)
22,CC(C)CCN1C(=O)C(O)(c2ccc3c(c2)OCO3)c2ccccc21 (centres unmarked),129 to 131 °C
